Experimental data taken from patent publication US10428014B2, “Base generator, base-reactive composition containing said base generator, and base generation method” (FUJIFILM Wako Pure Chemical Corporation, priority 2013, dated 2019).

Experiment: Exposure curing test using bisphenol A-type diglycidyl ether
Conditions: 10 mg compound, 100 mg jER 828, 50 mg KarenzMT PE1

Dissolution into the mixed solution of the bisphenol A-type diglycidyl ether oligomer and pentaerythritol tetrakis(3-mercaptobutyrate) | Molecule
did not dissolve | CC(C(=O)O)c1cccc(C(=O)c2ccccc2)c1 (stereo not shown) [formula (101), guanidium 2-(3-benzoylphenyl)propionate, reference compound]

Experiment: Heat resistance test (TG-DTA, initiation temperature of 5% weight decrease)
Type: physicochemical
Conditions: 10 mg, 30° C. to 500° C., 10° C./min

Decomposition initiation temperature [°C] | Molecule
200 | 1,2-diisopropyl-4,4,5,5-tetramethylbiguanidium 2-(9-oxoxanthene-2-yl)propionate [formula (7)]
161 | CC(C(=O)O)c1cccc(C(=O)c2ccccc2)c1 (stereo not shown) [formula (101), guanidium 2-(3-benzoylphenyl)propionate, reference compound]
205 | 1,2-dicyclohexyl-4,4,5,5-tetramethylbiguanidium 8(7H)-ethylidene-4-methoxy-5,6-dihydronaphthalene-1-carboxylate [formula (6)]
199 | 1,2-dicyclohexyl-4,4,5,5-tetramethylbiguanidium 2-(9-oxoxanthene-2-yl)propionate [formula (4)]
204 | 1,2-diisopropyl-4,4,5,5-tetramethylbiguanidium 8(7H)-ethylidene-4-methoxy-5,6-dihydronaphthalene-1-carboxylate [formula (5)]

Molecule | Decomposition initiation temperature [°C]
1,2-diisopropyl-4,4,5,5-tetramethylbiguanidium N-phthaloylglycine [formula (8)] | 206
